From ChEMBL document CHEMBL1201862, “PubChem BioAssay data set” (2004)
Calls of active or inactive are those of the source. Cut-off read from the data, not from the text of the source, for most assays here: actives have a measured EC50 and inactives only a lower limit.

Experiments:
[1] = Luminescence Cell-Based Dose Retest to Confirm Inhibitors of Cancer Stem Cells. [Related pubchem assays (depositor defined):AID2717, AID2721]; assay type: functional; details: Homo sapiens
[2] = tested on: INS1; test: INS-1E survival protection against cytokine death – cell-based, luminescence, retest, dose response (AID 449756); assay type: functional; details: Rattus norvegicus;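 note: cell death triggered by IL-1 beta plus TNF-alpha plus IFN-gamma mixture; protective hits raise ATP signal compared with cytokine alone wells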
[3] = viability of uninfected HEp-2 cells – cell-based, HTS, cytotoxicity control for RSV inhibitor project, dose response (AID 2410); assay type: functional; details: human respiratory syncytial virus
[4] = biological target: T1, Corticotropin-releasing factor receptor 2/Corticotropin-releasing factor-binding protein (Homo sapiens, UniProt P24387+Q13324); test: activators of CRF receptor 2 with binding protein – uHTS hits, confirmation (AID 602473); assay type: functional; details: read-out: EC50_Mean
T1 sequence (Q13324 whole entry): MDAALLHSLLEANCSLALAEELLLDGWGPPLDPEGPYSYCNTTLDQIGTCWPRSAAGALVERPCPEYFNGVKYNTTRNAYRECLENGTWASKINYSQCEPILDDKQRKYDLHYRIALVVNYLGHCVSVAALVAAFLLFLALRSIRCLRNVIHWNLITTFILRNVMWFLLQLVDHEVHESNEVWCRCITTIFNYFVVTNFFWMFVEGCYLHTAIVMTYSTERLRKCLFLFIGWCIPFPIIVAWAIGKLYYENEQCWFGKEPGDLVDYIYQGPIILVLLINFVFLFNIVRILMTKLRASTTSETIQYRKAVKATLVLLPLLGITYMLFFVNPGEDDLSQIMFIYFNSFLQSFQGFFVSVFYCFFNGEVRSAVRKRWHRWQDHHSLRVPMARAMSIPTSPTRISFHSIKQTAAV
T1 sequence (P24387 whole entry): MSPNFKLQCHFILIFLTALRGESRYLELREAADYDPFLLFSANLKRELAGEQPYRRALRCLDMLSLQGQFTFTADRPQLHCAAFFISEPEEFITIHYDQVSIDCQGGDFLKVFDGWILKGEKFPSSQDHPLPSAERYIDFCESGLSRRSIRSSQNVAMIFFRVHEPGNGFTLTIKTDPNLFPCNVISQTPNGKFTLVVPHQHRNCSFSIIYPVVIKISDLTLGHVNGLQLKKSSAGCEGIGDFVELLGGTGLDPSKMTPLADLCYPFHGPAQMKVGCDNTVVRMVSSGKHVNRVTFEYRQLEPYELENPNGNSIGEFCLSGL

[5] = biological target: T1, Corticotropin-releasing factor receptor 2/Corticotropin-releasing factor-binding protein; test: Dose Response confirmation of uHTS hits for small molecule antagonists of the CRF-binding protein and CRF-R2 receptor complex.; assay type: functional; details: read-out: IC50_Mean
[6] = luciferase reporter signal suppression in cells – H4 neuroglioma cells, luminescence, dose response (AID 1990); assay type: functional, cell-based
[7] = alpha-synuclein stem-loop luciferase translation blockers – H4 neuroglioma cells, luminescence, confirmation (AID 1988); assay type: functional, cell-based
[8] = Luminescence Cell-Based Dose Response HTS to Identify Inhibitors of 5'UTR Stem-Loop Driven Prion Protein mRNA Translation in H4 Neuroglioblastoma Cells. [Related pubchem assays: 1827 (Project Summary), 1813 (Primary HTS)]; assay type: functional
[9] = biological target: T2, Heat shock factor protein 1 (Mus musculus, UniProt P38532); test: decrease of HSF1-responsive luciferase luminescence – cell-based, NIH3T3, dose retest, confirmation (AID 2382); assay type: functional;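 note: NIH3T3 fibroblasts with HSF1-driven luciferase reporter stressed by proteasome inhibitor MG132; luminescence from HSF1-driven luciferase expression after 8 hours of MG132 stress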
T2 sequence (P38532 whole entry): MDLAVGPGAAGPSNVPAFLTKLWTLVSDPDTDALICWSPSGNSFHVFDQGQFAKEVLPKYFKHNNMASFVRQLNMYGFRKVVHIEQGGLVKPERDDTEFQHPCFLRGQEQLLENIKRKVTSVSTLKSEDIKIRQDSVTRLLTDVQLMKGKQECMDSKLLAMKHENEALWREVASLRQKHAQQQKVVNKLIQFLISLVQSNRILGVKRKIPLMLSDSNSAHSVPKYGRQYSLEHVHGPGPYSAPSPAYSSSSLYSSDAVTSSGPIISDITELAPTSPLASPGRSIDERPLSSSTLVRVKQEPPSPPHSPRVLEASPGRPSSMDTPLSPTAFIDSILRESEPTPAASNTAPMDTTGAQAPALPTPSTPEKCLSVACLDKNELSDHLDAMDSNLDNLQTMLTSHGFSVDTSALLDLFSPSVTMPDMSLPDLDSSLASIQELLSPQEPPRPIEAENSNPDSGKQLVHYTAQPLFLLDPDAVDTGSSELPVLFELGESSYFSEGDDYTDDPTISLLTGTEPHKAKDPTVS

[10] = NIH3T3 cell viability loss – ATP luminescence, mouse fibroblasts, counter-screen, dose response (AID 2010); assay type: functional, cell-based;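 note: cells exposed to compound for about 90 hours before reading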
[11] = Trypanosoma cruzi growth suppression in host cells – NIH3T3 host cells, beta-gal luminescence, confirmation (AID 2044); assay type: functional, cell-based;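 note: intracellular parasites grown in NIH/3T3 mouse fibroblasts as host cells; luminescent beta-galactosidase reporter signal from transgenic T. cruzi replicating inside host cells; inhibitors lower the luminescence signal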

## CC1(C)C[C@@H]2C[C@@](C)(CN2C(=O)c2cc(COc3cccc(C(F)(F)F)c3)on2)C1
[1]
  AC50: 2.23 µM (active)
[2]
  AC50: 11.6 µM (active)

## CCCC(=O)Nc1nc(C)c(-c2csc(Nc3ccc(Cl)cc3)n2)s1
[3]
  CC50: 7.41 µM (active)

## COc1ccc(CCNC(=O)c2ccc3c(c2)N(Cc2ccc(F)cc2)CCS3)cc1OC
[3]
  CC50: 25.7 µM (active)

## CCC1(C)Cc2c(sc3nc(SC)nc(N)c23)CO1 (configuration not stated)
[3]
  CC50: 31 µM (active)

## N#CCc1c(C#N)c(N)nc(N2CCCC2)c1C#N
[3]
  CC50: 19.6 µM (active)

## Cc1cc(C)c2c(C)n[nH]c2n1
[2]
  AC50: > 260 µM (inactive)

## O=C(CSc1nnc(C2COc3ccccc3O2)o1)NC1CCCCC1 (configuration not stated)
[4]
  EC50: > 53 µM (inactive)
[5]
  IC50: > 47.1 µM (inactive)

## COc1cccc(C2[C@H](C)C3(CCN2C)OCCO3)c1 (some centres not stated)
[6]
  EC50: > 120 µM (not active)
[7]
  EC50: > 120 µM (not active)
[8]
  EC50: > 120 µM (not active)

## COc1cc(OC)cc(C(=O)NCC(=O)OCc2cc(=O)oc3cc(OC)ccc23)c1
[4]
  EC50: > 53 µM (inactive)
[5]
  IC50: > 47.1 µM (inactive)

## Cc1nc(N)sc1-c1csc(Nc2ccc(Cl)cn2)n1
[3]
  CC50: 7.95 µM (active)

## CCOC(=O)C1CCN(C(=O)CCc2c(C)nc3cc(-c4ccccc4)nn3c2C)CC1
[6]
  EC50: 18.2 µM (active)
[8]
  EC50: 27.1 µM (active)

## COc1ccc(C2C(C#N)=C(N)Oc3cc4c(cc32)OCO4)cc1 (configuration not stated)
[6]
  EC50: > 120 µM (not active)
[7]
  EC50: 10.9 µM (active)
[8]
  EC50: 74 µM (active)

## CN(CCO)S(=O)(=O)c1ccc2c(c1)C(=NNC(N)=O)c1cc(S(=O)(=O)N(C)CCO)ccc1-2
[4]
  EC50: > 53 µM (inactive)
[5]
  IC50: > 47.1 µM (inactive)

## S=C(NCc1ccccc1)Nc1ccc(Cl)cc1
[4]
  EC50: > 53 µM (inactive)
[5]
  IC50: > 47.1 µM (inactive)

## COc1ccc(CCNC(=O)Cc2cccs2)cc1
[9]
  EC50: > 195 µM (not active)

## COc1cc(OC)c2c3c(c(C4CCCCC4)nc2c1)CCC3
[3]
  CC50: 30.1 µM (active)

## Cc1nnc(C)c2c(C)n(C(c3ccccc3)c3ccccc3)c(C)c12
[10]
  EC50: > 60 µM (not active)
[11]
  EC50: 1.46 µM (active)
[3]
  CC50: 18.3 µM (active)

## Cc1ccc(C)c(C(=O)OCC(=O)Nc2cccc(S(=O)(=O)NC3=NCCCCC3)c2)c1
[3]
  CC50: 20.6 µM (active)

## CCOc1ccc2c3c(c(=O)oc2c1OCC)CCCC3
[3]
  CC50: 44 µM (active)

## C/C=C/c1ccc(OCC(=O)Nc2ccc(OC)c(OC)c2)c(OC)c1
[9]
  EC50: > 195 µM (not active)

## CCNC(=O)Nc1cc(S(=O)(=O)Nc2ccc(OC)cc2)ccc1N1CCOCC1
[2]
  AC50: 3.3 µM (active)

## CC1(OC(=O)CCc2ccccc2)C(=O)C=C2C=C(c3ccc(C#N)cc3)N(CCc3ccccn3)C=C2C1=O (configuration not stated)
[9]
  EC50: > 195 µM (not active)

## Cc1nn(Cc2ccc(F)cc2)c(C)c1NC(=O)c1cc(-c2ccc3c(c2)OCO3)on1
[6]
  EC50: 15.7 µM (active)
[7]
  EC50: > 120 µM (not active)
[8]
  EC50: > 120 µM (not active)
